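Tested at 5 concentrations; 48 h exposure; 96-well plates; endpoints linearly interpolated, else capped at highest concentration. TGI: total growth inhibition.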

TGI data for seven compounds are collected here from PubChem BioAssay (NCI).

Some test systems named below: HCT-15 colon; NCI/ADR-RES ovarian; CAKI-1 renal; DU-145 prostate; MOLT-4 leukemia; UO-31 renal; T-47D breast; SF-295 CNS; A549 NSCLC; KM12 colon; OVCAR-5 ovarian; OVCAR-8 ovarian; RXF 393 renal; A498 renal; UACC-62 melanoma; MALME-3M melanoma; HT29 colon; K-562 leukemia.
What all share (assay): NCI tumour cell line growth inhibition, 48 h

As for `CCOC(=O)CC1Nc2ccccc2C12CCc1c([nH]c3ccccc13)C2C(=O)OCC` (stereo not drawn), the TGI in the experiment with HCT-15 colon, with NCI/ADR-RES ovarian, in the experiment with CAKI-1 renal, with DU-145 prostate, in the experiment with MOLT-4 leukemia and in the experiment on UO-31 renal was above 100 µM each time. Further, the TGI in the experiment on T-47D breast was above 100 µM; in the experiment on SF-295 CNS, 22.5 µM; with A549 NSCLC, above 100 µM; in the experiment with KM12 colon it was above 100 µM; in the experiment with OVCAR-5 ovarian, above 100 µM; with OVCAR-8 ovarian, above 100 µM. The TGI was above 100 µM with RXF 393 renal; above 100 µM in the experiment with A498 renal; above 100 µM in the experiment on UACC-62 melanoma; 51.6 µM with MALME-3M melanoma; 40.1 µM in the experiment on HT29 colon; above 100 µM with K-562 leukemia.

For the compound `O=C(O)c1ccc(Nc2cnc3cc(C(F)(F)F)ccc3n2)cc1`, the TGI was 83.5 µM in the experiment on HCT-15 colon; above 100 µM in the experiment on NCI/ADR-RES ovarian; above 100 µM in the experiment with CAKI-1 renal; above 100 µM in the experiment with DU-145 prostate; above 100 µM in the experiment on MOLT-4 leukemia; above 100 µM with UO-31 renal. In addition, the TGI with T-47D breast was 53.8 µM; in the experiment with SF-295 CNS it was above 100 µM; in the experiment on A549 NSCLC, above 100 µM; with KM12 colon it was above 100 µM; in the experiment with OVCAR-5 ovarian, above 100 µM; with OVCAR-8 ovarian it was above 100 µM. The TGI in the experiment with RXF 393 renal is above 100 µM; in the experiment on UACC-62 melanoma, 53.6 µM; in the experiment with MALME-3M melanoma, above 100 µM; in the experiment with HT29 colon, above 100 µM; in the experiment on K-562 leukemia, above 100 µM.

As to `O=C1c2ccccc2C(=O)N1NC1=NCCN1`, the TGI with HCT-15 colon, in the experiment with NCI/ADR-RES ovarian, in the experiment with CAKI-1 renal, with DU-145 prostate, in the experiment with MOLT-4 leukemia and with T-47D breast was above 100 µM in each case. Moreover, the TGI in the experiment with SF-295 CNS, in the experiment with A549 NSCLC, in the experiment on KM12 colon, in the experiment on OVCAR-5 ovarian, in the experiment on OVCAR-8 ovarian and in the experiment with RXF 393 renal was above 100 µM in each case. Moreover, the TGI in the experiment on A498 renal, in the experiment on UACC-62 melanoma, with MALME-3M melanoma, in the experiment on HT29 colon and in the experiment with K-562 leukemia was above 100 µM in each case.

For `C=CCOCn1cnc2c(=O)[nH]c(N)nc21`, the TGI in the experiment with HCT-15 colon, in the experiment on NCI/ADR-RES ovarian, in the experiment on CAKI-1 renal, in the experiment on DU-145 prostate, with MOLT-4 leukemia and with UO-31 renal was above 100 µM each time. Further, the TGI in the experiment with T-47D breast, in the experiment on SF-295 CNS, in the experiment on A549 NSCLC, in the experiment with KM12 colon, with OVCAR-5 ovarian and in the experiment on OVCAR-8 ovarian was above 100 µM each time. The TGI in the experiment on A498 renal, in the experiment with UACC-62 melanoma, in the experiment with MALME-3M melanoma and with K-562 leukemia was above 100 µM throughout.

`O=C1N[C@H](C(=O)O)[C@@H](c2ccc(OCc3ccccc3)cc2)O1`: the TGI in the experiment with HCT-15 colon is above 100 µM; in the experiment with NCI/ADR-RES ovarian, 65.3 µM; in the experiment with CAKI-1 renal, above 100 µM; in the experiment on DU-145 prostate, above 100 µM; in the experiment on MOLT-4 leukemia it was above 100 µM; in the experiment on UO-31 renal it was above 100 µM. Moreover, the TGI was above 100 µM in the experiment with T-47D breast; 79.6 µM in the experiment with SF-295 CNS; above 100 µM with A549 NSCLC; above 100 µM in the experiment on KM12 colon; above 100 µM in the experiment on OVCAR-5 ovarian; 45.8 µM in the experiment on OVCAR-8 ovarian. Also, the TGI in the experiment with RXF 393 renal was 32.1 µM; with UACC-62 melanoma, above 100 µM; in the experiment with MALME-3M melanoma it was above 100 µM; in the experiment on HT29 colon, above 100 µM; with K-562 leukemia it was above 100 µM.

For `CC1(C)N([O-])[N+](=O)C1(C)O` (stereo not drawn), the TGI in the experiment on HCT-15 colon, in the experiment on NCI/ADR-RES ovarian, in the experiment on CAKI-1 renal, in the experiment with DU-145 prostate, in the experiment on MOLT-4 leukemia and with UO-31 renal was above 100 µM throughout. Further, the TGI in the experiment with T-47D breast, with A549 NSCLC, in the experiment with KM12 colon, with OVCAR-5 ovarian, with OVCAR-8 ovarian and in the experiment on RXF 393 renal was above 100 µM in each case. Moreover, the TGI with A498 renal, in the experiment with UACC-62 melanoma, with MALME-3M melanoma, with HT29 colon and with K-562 leukemia was above 100 µM each time.

For `Cc1cc(=O)oc2c(C)c3oc(CBr)cc3cc12`, the TGI with HCT-15 colon was 44.3 µM; with NCI/ADR-RES ovarian, 58.1 µM; in the experiment on CAKI-1 renal, 31.8 µM; in the experiment on DU-145 prostate, above 100 µM; with MOLT-4 leukemia it was 54.3 µM; in the experiment on UO-31 renal, 30.3 µM. The TGI in the experiment on T-47D breast stood at 60.8 µM; in the experiment on SF-295 CNS, 34.3 µM; in the experiment with A549 NSCLC, 33.3 µM; in the experiment with KM12 colon it was 42.1 µM; in the experiment with OVCAR-5 ovarian, 36.8 µM; in the experiment on OVCAR-8 ovarian, 66.7 µM. For the same compound, the TGI was 33.9 µM with UACC-62 melanoma, 40.3 µM with MALME-3M melanoma, 79.9 µM in the experiment with HT29 colon and 46.7 µM with K-562 leukemia.
